Experimental data reported in ChEMBL document CHEMBL1201862, “PubChem BioAssay data set” (2004).
Calls of active or inactive are those of the source. Rule as the data show it, for most assays here: actives have a measured EC50 and inactives only a lower limit.

Key:
[1] = cells; type: functional
[2] = molecular target: T1, Zinc finger protein mex-5 (Caenorhabditis elegans, UniProt Q9XUB2); test: potency of MEX-5 RNA-binding blockers – biochemical, C. elegans, fluorescence polarization, dose response (AID 1960)
T1 sequence (Q9XUB2 whole entry): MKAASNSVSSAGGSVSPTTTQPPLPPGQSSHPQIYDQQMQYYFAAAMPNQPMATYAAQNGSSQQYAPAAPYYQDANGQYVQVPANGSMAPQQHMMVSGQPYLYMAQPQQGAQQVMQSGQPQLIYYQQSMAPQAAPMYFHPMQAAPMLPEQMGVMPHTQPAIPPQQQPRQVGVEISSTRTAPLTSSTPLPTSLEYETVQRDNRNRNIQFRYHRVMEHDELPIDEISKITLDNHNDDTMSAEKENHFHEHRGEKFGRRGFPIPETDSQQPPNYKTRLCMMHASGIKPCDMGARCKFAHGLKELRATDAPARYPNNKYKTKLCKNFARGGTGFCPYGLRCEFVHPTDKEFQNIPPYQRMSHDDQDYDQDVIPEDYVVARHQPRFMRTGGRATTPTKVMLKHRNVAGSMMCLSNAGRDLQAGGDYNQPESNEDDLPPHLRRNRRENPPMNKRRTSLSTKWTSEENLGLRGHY

[3] = molecular target: T2, RNA-binding protein pos-1 (Caenorhabditis elegans, UniProt G5EF15); test: disruptors of C. elegans POS-1 RNA interaction – biochemical, fluorescence polarization, dose response (AID 1964);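 also: purified POS-1 fused to maltose binding protein made in E. coli; potency of compounds blocking POS-1 binding to fluorescent RNA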
T2 sequence (G5EF15 whole entry): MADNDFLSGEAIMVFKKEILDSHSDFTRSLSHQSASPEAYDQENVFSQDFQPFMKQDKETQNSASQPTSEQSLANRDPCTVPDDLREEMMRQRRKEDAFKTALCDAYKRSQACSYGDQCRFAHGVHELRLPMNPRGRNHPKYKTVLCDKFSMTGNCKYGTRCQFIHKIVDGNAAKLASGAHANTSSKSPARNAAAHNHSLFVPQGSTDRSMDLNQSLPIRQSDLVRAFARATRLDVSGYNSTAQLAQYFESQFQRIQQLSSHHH

[4] = cells; type: functional, cell-based
[5] = cells; type: functional, cell-based; remark: listed apart in the source
[6] = molecular target: T3, Heat shock factor protein 1 (Mus musculus, UniProt P38532); test: enhancement of HSF1-driven luciferase signal – cell-based, NIH3T3, luminescence, dose retest, confirmation (AID 435004); type: functional;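 also: stress induced by proteasome inhibitor MG132 added 30 min after compound; luciferase reporter driven by HSF1 response element in NIH3T3 cells; actives raise luminescence as potentiators of the MG132 stress response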
T3 sequence (P38532 whole entry): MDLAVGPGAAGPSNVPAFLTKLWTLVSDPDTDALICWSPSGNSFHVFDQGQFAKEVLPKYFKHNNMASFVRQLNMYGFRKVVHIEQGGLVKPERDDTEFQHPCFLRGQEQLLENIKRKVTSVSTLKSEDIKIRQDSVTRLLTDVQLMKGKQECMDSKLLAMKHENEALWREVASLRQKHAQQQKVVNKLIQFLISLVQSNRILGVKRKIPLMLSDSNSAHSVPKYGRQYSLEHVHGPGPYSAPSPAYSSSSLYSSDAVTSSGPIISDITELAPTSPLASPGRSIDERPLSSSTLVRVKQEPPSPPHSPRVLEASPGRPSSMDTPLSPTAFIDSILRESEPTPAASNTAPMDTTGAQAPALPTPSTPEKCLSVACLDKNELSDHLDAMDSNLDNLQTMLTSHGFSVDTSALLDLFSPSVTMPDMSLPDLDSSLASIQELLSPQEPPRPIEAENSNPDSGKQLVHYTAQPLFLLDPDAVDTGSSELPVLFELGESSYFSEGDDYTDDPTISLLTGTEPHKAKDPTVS

[7] = system: Streptococcus; test: GAS UMAA2166 growth inhibition – luminescence, BacTiterGlo, counter-screen for streptokinase expression inhibitor project, dose response (AID 1915); type: functional, organism-based;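 also: potency for reduction of bacterial viability or growth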
[8] = system: Streptococcus sp. 'group A'; test: Streptococcus pyogenes SK(-)GAS viability under kanamycin – luminescence, BacTiterGlo, confirmation, counter-screen for streptokinase expression inhibitor project, dose response (AID 1900); type: functional, organism-based
[9] = molecular target: T4, Corticotropin-releasing factor receptor 2/Corticotropin-releasing factor-binding protein (Homo sapiens, UniProt P24387+Q13324); test: activators of CRF receptor 2 with binding protein – uHTS hits, confirmation (AID 602473); type: functional; conditions: read-out: EC50_Mean
T4 sequence (Q13324 whole entry): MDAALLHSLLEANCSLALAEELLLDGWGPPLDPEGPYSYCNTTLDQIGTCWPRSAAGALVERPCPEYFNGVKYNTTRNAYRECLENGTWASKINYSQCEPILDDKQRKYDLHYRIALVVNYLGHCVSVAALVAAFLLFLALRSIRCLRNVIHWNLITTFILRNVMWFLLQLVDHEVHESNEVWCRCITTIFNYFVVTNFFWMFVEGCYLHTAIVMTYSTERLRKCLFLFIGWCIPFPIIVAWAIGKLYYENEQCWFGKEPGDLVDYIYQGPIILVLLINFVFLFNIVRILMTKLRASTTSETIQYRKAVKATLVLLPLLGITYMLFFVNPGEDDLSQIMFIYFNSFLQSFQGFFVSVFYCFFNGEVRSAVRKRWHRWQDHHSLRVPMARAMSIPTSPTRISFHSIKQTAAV
T4 sequence (P24387 whole entry): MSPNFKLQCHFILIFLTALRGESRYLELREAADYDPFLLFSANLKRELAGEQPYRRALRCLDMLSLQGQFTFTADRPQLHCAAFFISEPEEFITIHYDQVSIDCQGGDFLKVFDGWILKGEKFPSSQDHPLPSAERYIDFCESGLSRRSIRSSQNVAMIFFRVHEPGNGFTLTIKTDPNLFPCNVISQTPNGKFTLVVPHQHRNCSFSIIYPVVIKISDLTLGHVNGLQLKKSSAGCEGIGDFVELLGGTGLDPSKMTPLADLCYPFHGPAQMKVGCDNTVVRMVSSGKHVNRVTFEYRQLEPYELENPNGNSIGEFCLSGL

[10] = luciferase reporter signal suppression in cells – H4 neuroglioma cells, luminescence, dose response (AID 1990); type: functional, cell-based
[11] = alpha-synuclein stem-loop luciferase translation blockers – H4 neuroglioma cells, luminescence, confirmation (AID 1988); type: functional, cell-based
[12] = Luminescence Cell-Based Dose Response HTS to Identify Inhibitors of 5'UTR Stem-Loop Driven Prion Protein mRNA Translation in H4 Neuroglioblastoma Cells. [Related pubchem assays: 1827 (Project Summary), 1813 (Primary HTS)]; type: functional

Structure (SMILES): COC(=O)CCCC(=O)N1CCCC(C(=O)c2ccc(-c3ccccc3)cc2)C1 (stereo not drawn)
- IC50 [1]: > 50 µM (active)

Structure (SMILES): CCN1C(=O)/C(=C\c2cccs2)C(C(=O)OC)=C1C
- EC50 [2]: > 300 µM (not active)
- EC50 [3]: > 300 µM (not active)

Structure (SMILES): CC(=O)Nc1nc(C)c(-c2csc(Nc3ccccn3)n2)s1
- EC50 [4]: > 350 µM (not active)
- EC50 [5]: 5.87 µM (active)

Structure (SMILES): COc1ccc(CC(=O)NN=C(S)NCC2CC2)cc1OC
- EC50 [4]: > 350 µM (not active)
- EC50 [5]: > 350 µM (not active)

Structure (SMILES): N#C/C(=C/c1cccn1-c1cccc(C(=O)O)c1)c1ccc(Cl)cc1
- EC50 [2]: > 300 µM (not active)
- EC50 [3]: > 300 µM (not active)

Structure (SMILES): CCCN(Cc1nnc(-c2ccccc2Cl)o1)C(=O)c1cc([N+](=O)[O-])cc([N+](=O)[O-])c1
- IC50 [1]: 5.87 µM (active)

Structure (SMILES): COCCn1c(N)c(N(Cc2ccccc2)C(=O)c2ccc(C#N)cc2)c(=O)[nH]c1=O
- EC50 [6]: > 260 µM (inactive)

Structure (SMILES): CN1C(=O)/C(=C/c2ccccc2F)Sc2ccc(C(=O)N3CCCC3)cc21
- EC50 [7]: 2.66 µM (active)
- EC50 [8]: 1.06 µM (active)

Structure (SMILES): Cc1cc(/C=C2\C(=O)NC(=O)N(c3ccc(Br)cc3)C2=O)c(C)n1-c1cc(C(=O)O)cc(C(=O)O)c1
- EC50 [2]: > 300 µM (not active)
- EC50 [3]: > 300 µM (not active)

Structure (SMILES): Cc1ccc(-c2ccc(O)nn2)cc1
- EC50 [6]: > 260 µM (inactive)

Structure (SMILES): O=C1NC(=O)N(c2cccc(Cl)c2)C(=O)/C1=C\Nc1ccccn1
- EC50 [2]: > 300 µM (not active)
- EC50 [3]: > 300 µM (not active)

Structure (SMILES): COc1ccc(C2C(C#N)=C(N)Oc3cc(O)ccc32)cc1C (stereo not drawn)
- EC50 [9]: > 53 µM (inactive)

Structure (SMILES): CCc1ccc(NC(=O)COc2ccc3c(c2)OCO3)cc1
- IC50 [1]: > 50 µM (active)

Structure (SMILES): COC(=O)CCCC1=CC2=CC(=O)C(C)(OC(=O)c3ccco3)C(=O)C2=CO1 (stereo not drawn)
- EC50 [2]: 22.3 µM (active)
- EC50 [3]: 274 µM (inconclusive)

Structure (SMILES): O=C(COC(=O)c1ccc(Cl)s1)c1ccc[nH]1
- IC50 [1]: 5.77 µM (active)

Structure (SMILES): Cc1cc(=O)oc2cc(OCC(=O)N3CCN(c4ccc(F)cc4)CC3)ccc12
- EC50 [4]: > 350 µM (not active)
- EC50 [5]: > 350 µM (not active)

Structure (SMILES): Cc1ccc(CNC(=O)/C(C#N)=C\c2ccc(N(C)C)cc2)cc1
- EC50 [2]: > 300 µM (not active)
- EC50 [3]: 43.5 µM (active)

Structure (SMILES): CCOc1ccccc1N1CCN(C(=S)NC(=O)C23CC4CC(CC(C4)C2)C3)CC1
- EC50 [10]: > 120 µM (not active)
- EC50 [11]: 17.3 µM (active)
- EC50 [12]: 24.5 µM (active)
- EC50 [4]: > 350 µM (not active)
- EC50 [5]: > 350 µM (not active)

Structure (SMILES): Cc1ccc(C(=O)Nc2nccs2)cc1
- IC50 [1]: 41.4 µM (active)
